We go through one compound from ChEMBL document CHEMBL5576130, “Non-Covalent Inhibitors of SARS-CoV-2 Papain-Like Protease (PLpro): In Vitro and In Vivo Antiviral Activity” (J Med Chem, 2024).

For assay [1], the system named is SARS-CoV-2. Description: Antiviral activity against SARS-CoV-2 Delta (B.1.617.2) variant infected in human A549 cells harbouring ACE2 pretreated with compound for 1 hr followed by viral infection for 1 hrs and measured after 48 hrs by RT-qPCR analysis. The format is functional, organism-based. The conditions noted are these: Severe acute respiratory syndrome coronavirus 2, time 50.0 hrs. For orientation: Real-time PCR tracks product formation cycle by cycle.

In assay [2] the test system is SARS-CoV-2. Briefly: Antiviral activity against SARS-CoV-2 Gamma (P.1) variant infected in human A549 cells harbouring ACE2 pretreated with compound for 1 hr followed by viral infection for 1 hrs and measured after 48 hrs by RT-qPCR analysis. The format is functional, organism-based. The conditions noted are these: Severe acute respiratory syndrome coronavirus 2, time 50.0 hrs.

Activity calls are given as the source filed them. No cut-off for these calls is given here.

Turning to `Cc1ccc(NC2CNC2)cc1C(=O)N[C@H](C)c1cccc(-c2ccc(CNC3CCCC3)s2)c1`, the outcome in the assay on SARS-CoV-2 [1] and in the assay on SARS-CoV-2 [2] was Active.
